Several values for one entry are separate records, joined by “and”; a condition that tells them apart may be missing. Equal entries are not always repeated. Where two headings read alike, the source gives them in different places.
Key:
S. aureus MRSA = conditions: Gram positive clinical isolate
S. epidermidis MRSE = conditions: Gram positive clinical isolate
E. Coli-ESBL positive = conditions: Gram negative clinical isolate
[1] = test system: Klebsiella pneumoniae ATCC 13883; conditions: Gram negative reference strain
[2] = test system: Pseudomonas aeruginosa ATCC 27853; conditions: Gram negative reference strain
HIV-1 IIIB = assay: microbe, parasite or virus in culture; format: cell-based
Summary of the method: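 cMAGI β-galactosidase reporter cells or MT2 cells infected at 0.2-0.5 MOI with wild-type or resistant HIV-1 and incubated 4 days at 37 °C with varying compound concentrations. Infection scored by counting X-gal-stained blue cMAGI cells; MT2 syncytium formation assessed microscopically, cytotoxicity by trypan blue exclusion.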

[3] = test system: Staphylococcus aureus ATCC 24213; conditions: Gram positive reference strain
[4] = test system: P. aeruginosa-gentamicin^r, meropenem^r; conditions: Gram negative clinical isolate
[5] = test system: Enterococcus faecalis (clinical isolate); conditions: Gram positive clinical isolate
[6] = test system: K. pneumoniae-ESBL negative; conditions: Gram negative clinical isolate
S. aureus MSSA = conditions: Gram positive clinical isolate
Enterobacter cloacae = conditions: Gram negative clinical isolate
[7] = test system: Streptococcus bovis ATCC 9809; assay: MIC, broth microdilution; format: cell-based; conditions: Gram positive reference strain
Method: Minimal Inhibition Concentration (MIC) measurements: The Minimal Inhibitory Concentration (MIC) was generally determined by the Broth Microdilution method (based on the protocol described in Clinical and Laboratory Standard Institute (CLSI) NCCLS (2003) M7-A6), as follows:
A stock solution of each of the tested compounds was prepared by diluting the compound to a 2,560 μg/ml concentration with an appropriate solvent. The stock solution was then serially 2-fold diluted in 96-well microdilution trays using Cation-Adjusted Mueller-Hinton Broth (CAMHB) until reaching the desired range of concentrations, whereas each well contained double the final working concentration. Each row further had one growth control well (medium+inoculum only), and one sterility control well (medium+tested compound). Plates were stored at −70° C. until used.
The tested microorganisms were used as fresh overnight cultures on blood agar (for gram-positive organisms) or MacConkey agar (for gram-negatives). A standardized inoculum suspension was prepared by the direct colony suspension method, using sterile saline (equivalent to a 0.5 McFarland standard).
Thus, 50 μl of the inoculum suspension were added to each tested well (except for the sterility control well), and […] was performed during 18-24 hours (depending on the tested microorganism or compound) at 35° C.

CXCR4 = molecular target: T1, CXCR4 (Homo sapiens, UniProt P61073); assay: Competition with 12G5 mAb binding to CXCR4 on MT2 cells (flow cytometry)
T1 construct: incubated at 4° C. with anti-CXCR4 mAb, 12G5, conjugated to phycoerithrine (PE); endogenous in cells; host or cells: MT2 cells
Summary of the method: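 MT2 cells (0.5×10^6) were incubated for 30 min at 4 °C with PE-conjugated 12G5 anti-CXCR4 mAb, alone or with varying concentrations of pAACs or arginine peptides, in ice-cold PBS/0.1% azide. Cells were then fixed in 1% paraformaldehyde and analysed by flow cytometry (10,000 events), with an isotype control defining non-specific fluorescence.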

[8] = test system: P. aeruginosa-gentamicin^s, meropenem^s; conditions: Gram negative clinical isolate
[9] = test system: Proteus mirabilis ATCC 7002; conditions: Gram negative reference strain
HIV-1 Ba-L = format: cell-based; conditions: Table 4
Method: (§1) Inhibition of HIV-1 cell replication was tested using the cMAGI assay, which is based on the ability of HIV-1 TAT to transactivate the expression of an integrated β-galactosidase reporter gene driven by the HIV-LTR (B. Chackeria et al., J. Virol., (1997) 71, 3932; Collins et al., Nat. Med. (2000) 6, 475). The β-galactosidase reporter is modified to remain localized in the nucleus where it can be detected with the X-gal (5-bromo-4-chloro-3indoyl-β-D-galactopyranoside) substrate as an intense nuclear stain within a few days of infection.
(§2) HIV-1 isolates were propagated by subculture in MT2 cells (Litovchick et al. (2001) supra). Aliquots of cell-free culture supernatants were used as viral inoculum. PAACs were dissolved in the RPMI 1640 medium. Cytotoxicity determinations were carried out in MT2 cells by trypan blue exclusion assay. Viral inhibition was determined by incubating MT2 or cMAGI HIV-1 reporter cells with 0.2-0.5 multiplicity of infection of HIV-1 wild type or resistant virus for 4 days at 37° C. in the presence or absence of various concentrations of pAACs. HIV-1 infection of cMAGI cells was determined by counting the number of HIV-1-infected cells (stained blue). The cytopathic effects of the viral infection of MT2 cells were also analyzed by microscopic assessment of syncytium formation.

[10] = test system: HIV-1 clinical isolate Clade C; format: cell-based
Method: as §1, §2

[11] = test system: HIV-1 Protease resistant virus; format: cell-based; conditions: Table 4; read-out: EC50 Protease^Res
Method: as §1, §2

[12] = test system: Escherichia coli ATCC 25922; conditions: Gram negative reference strain
E. coli U23773^r = conditions: Gram negative clinical isolate
[13] = test system: A. baumannii-amikacin^r, meropenem^r; conditions: Gram negative clinical isolate
[14] = test system: Enterococcus faecium (clinical isolate); assay: MIC, broth microdilution; format: cell-based; conditions: Gram positive clinical isolate; for MIC: read-out: Minimum Inhibitory Concentration

T1 sequence (P61073 whole entry): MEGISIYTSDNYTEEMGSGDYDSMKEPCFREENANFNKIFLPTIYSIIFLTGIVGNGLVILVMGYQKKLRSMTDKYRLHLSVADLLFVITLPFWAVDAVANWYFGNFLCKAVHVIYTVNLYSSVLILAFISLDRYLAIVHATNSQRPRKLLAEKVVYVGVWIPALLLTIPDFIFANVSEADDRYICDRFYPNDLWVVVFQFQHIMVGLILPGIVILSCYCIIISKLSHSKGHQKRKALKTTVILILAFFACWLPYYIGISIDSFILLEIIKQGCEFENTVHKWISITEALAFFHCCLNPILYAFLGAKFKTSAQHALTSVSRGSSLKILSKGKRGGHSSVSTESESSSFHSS

| Compound | Minimum Inhibitory Concentration (S. aureus MRSA) | Minimum Inhibitory Concentration (S. epidermidis MRSE) | Minimum Inhibitory Concentration (E. Coli-ESBL positive) | Minimum Inhibitory Concentration [1] | Minimum Inhibitory Concentration [2] | EC50 (HIV-1 IIIB; Table 4, read-out: EC50 IIIB) [nM] | Minimum Inhibitory Concentration [3] | Minimum Inhibitory Concentration [4] | Minimum Inhibitory Concentration [5] | Minimum Inhibitory Concentration [6] | Minimum Inhibitory Concentration (S. aureus MSSA) | Minimum Inhibitory Concentration (Enterobacter cloacae) | Minimum Inhibitory Concentration [7] [mg/L] | Minimum Inhibitory Concentration [8] | Minimum Inhibitory Concentration [9] | EC50 (HIV-1 Ba-L) [µM] | EC50 [11] [nM] | Minimum Inhibitory Concentration [12] | Minimum Inhibitory Concentration (E. coli U23773^r) | Minimum Inhibitory Concentration [13] | also measured |
| --- | --- | --- | --- | --- | --- | --- | --- | --- | --- | --- | --- | --- | --- | --- | --- | --- | --- | --- | --- | --- | --- |
| CC(=O)N[C@H](CCCNC(=N)N)C(=O)N[C@H](CCCNC(=N)N)C(=O)N[C@H](CCCNC(=N)N)C(=O)N[C@H](CCCNC(=N)N)C(=O)N[C@H](CCCNC(=N)N)C(=O)N[C@H](CCCNC(=N)N)C(=O)N[C@H](CCCNC(=N)N)C(=O)N[C@H](CCCNC(=N)N)C(=O)N[C@H](CCCNC(=N)N)C(=O)O [Compound 12, D-Arg-9-mer-NHAc] | > 128.0 mg/liter and 63.82 μM | 96.0 mg/liter and 47.86 μM | 64.0 mg/liter and 31.91 μM | 96.0 mg/liter and 47.86 μM | > 256.0 mg/liter and 127.64 μM | 1500 ± 600 | 128.0 mg/liter and 63.82 μM | > 256.0 mg/liter and 127.64 μM | 128.0 mg/liter and 63.82 μM | 256.0 mg/liter and 127.64 μM | > 128.0 mg/liter and 63.82 μM | 128.0 mg/liter and 63.82 μM | 128.0 | > 256.0 mg/liter and 127.64 μM | > 256.0 mg/liter and 127.64 μM | > 50 | 1400 ± 600 | 128.0 mg/liter and 63.82 μM | 64.0 mg/L | > 256.0 mg/liter and 127.64 μM | inhibition at 2 µM (CXCR4; 2 μM, read-out: % Inhibition of 12G5 mAb binding to CXCR4): 81.3%; inhibition at 10 µM (CXCR4; 10 μM, read-out: % Inhibition of 12G5 mAb binding to CXCR4): 99.6%; EC50 ([10]; clinical isolate Clade C): 1600 ± 400 nM |
| NCC1OC(OC2C(CO)OC(OC3C(O)C(N)CC(N)C3OC3OC(CN)C(O)C(O)C3N)C2O)C(N)C(O)C1O (stereo not shown) [Neomycin] |  |  |  |  |  |  |  |  |  |  |  |  |  |  |  |  |  |  | 140.81 µM | 105.61 µM | EC50 (HIV-1 IIIB; Human immunodeficiency virus 1, MT2, Table 3, against HIV-1 IIIB virus, read-out: EC50): > 200000 nM; MIC ([14]; Enterococcus faecium): 256 µg/mL and 282 µM |
| D-Arg-9-mer-neomycin [Compound 14] | 32.0 mg/liter and 11.02 μM | 8.0 mg/liter and 2.76 μM | 24.0 mg/liter and 8.27 μM | 12.0 mg/liter and 4.14 μM | > 256.0 mg/liter and 88.22 μM | 1300 ± 400 | 32.0 mg/liter and 11.02 μM | > 156.0 mg/liter and 53.76 μM | 64.0 mg/liter and 22.05 μM | 64.0 mg/liter and 22.05 μM | 16.0 mg/liter and 5.51 μM | 64.0 mg/liter and 22.05 μM | 24.0 | > 256.0 mg/liter and 88.22 μM | 64.0 mg/liter and 22.05 μM | > 50 | 1500 ± 400 | 32.0 mg/liter and 11.02 μM | 32.0 mg/L | > 256.0 mg/liter and 88.22 μM | Minimum Inhibitory Concentration [14]: 24.0 mg/L; MIC [14]: 8.27 µM; % Inhibition of 12G5 mAb binding to CXCR4 (CXCR4; 2 μM): 95.3%; % Inhibition of 12G5 mAb binding to CXCR4 (CXCR4; 10 μM): 100%; EC50 ([10]; Table 4, read-out: EC50 Clade C): 1200 ± 500 nM |

From US20060166867A1, “Novel conjugates of polysaccharides and uses thereof” (priority 2003, published 2006)
